Legend:
Type in all cases: physicochemical
[1] = Dissolving insoluble calcium salts (CaCO3 stirred with THDA.Na3 solution, calcium in filtrate by ICP)
Experimental: A mixture of CaCO3 (1.26 g, […]), 37.8 wt % THDA.Na3 in water (15 g, 18.8 mM), and water (45 g) was vigorously stirred for 6 h. The experiment was performed at room temperature and at 50° C. Samples (1 ml) were taken from the mixture every 0.5 h and filtered through a 0.45 μm filter. The concentration of calcium in the filtered samples was determined using the ICP method.

[2] = Potentiometric titration with FeCl3, iron total sequestering value (Fe-TSV)
Text: Potentiometric titration of THDA with FeCl3 at pH 3-4 and 11.5 gave the iron total sequestering values (Fe-TSV) of 37.8 and 27.8%, respectively. […] All Fe(III) is bound by THDA at pH 3-4.

[3] = Cyclisation to the 6-oxomorpholine ring-closed form in DMSO-d6/TFA, monitored by 1H NMR; conditions: 30% aqueous disodium salt in DMSO-d6/TFA 80:20 w/w, ambient temperature
Experimental: A 30% aqueous solution of disodium threonine diacetate (129 mg) was mixed well with a DMSO-d6/TFA solution (2761 mg, 80:20 w/w) and changes in the obtained mixture were monitored by ^1H NMR at ambient temperature. The steady state was reached after 40 minutes with a conversion of 90% of THDA to cyclic-THDA.
A 30% aqueous solution of disodium serine diacetate (136 mg) was mixed well with a DMSO-d6/TFA solution (2911 mg, 80:20 w/w) and changes in the obtained mixture were monitored by ^1H NMR at ambient temperature. The steady state was reached after 100 minutes with a conversion of 43% of SerDA to cyclic-SerDA. The above experiments support that THDA can be used in applications that relate to dissolving carbonate or sequestering iron, such as use in the oil field (e.g. dissolving CaCO3 and controlling iron in subterranean treatment), use in a feed, food or micronutrient composition (e.g. complexing iron and calcium for delivery to growing substrates), use in detergents and water treatments (e.g. sequestering calcium from water to soften water and sequestering iron present in stains), and many more uses.

Row | SMILES | speed of CaCO3 dissolution at 50° C. versus room temperature ([1]; 50° C.) | dissolution of CaCO3 ([1]; CaCO3 12.6 mM, THDA.Na3 18.8 mM in water, stirred 6 h, room temperature and 50° C.) | iron total sequestering value (Fe-TSV) ([2]; pH 3-4) [%] | iron total sequestering value (Fe-TSV) ([2]; pH 11.5) [%] | conversion to cyclic form at steady state [3] [%] | time to reach steady state of cyclisation [3] [min]
1 | C[C@@H](O)[C@@H](C(=O)O)N(CC(=O)O)CC(=O)O.[Na+].[Na+].[Na+] [THDA.Na3, Trisodium Threonine Diacetate] | noticeably faster | significant amount | – | – | – | –
2 | C[C@@H](O)[C@@H](C(=O)O)N(CC(=O)O)CC(=O)O [THDA, threonine-N,N-diacetic acid] | – | – | 37.8 | 27.8 | 90 | 40
3 | O=C(O)CN(CC(=O)O)[C@@H](CO)C(=O)O [SerDA, serine-N,N-diacetic acid, reference compound] | – | – | – | – | 43 | 100
